Data published in patent US20250269072A1, “PROCESSES FOR PREPARING RADIOLABELLED CONJUGATES” (CENTENARY INSTITUTE OF CANCER MEDICINE AND CELL BIOLOGY, priority 2021, published 2025).
“And” between values parts separate entries of the source, which are not always exact repeats. Equal values may be shown once.

Columns and labels:
[1] = Human studies: radiation dosimetry of subjects 1-4 (Olinda/EXM); format: in vivo
Protocol: For subjects 1-4, radiation dosimetry was calculated using Olinda/EXM based on the organ biodistribution discussed above.
Tables 7-10 show the estimate for radiation dosimetry for subjects 1˜4 of 200 MBq of ^68Ga NODAGA GSAO for individual organs and for the whole body in mSv/MBq (EDE cont.=effective dose equivalent contribution, ED Cont.=effective dose contribution). The estimated whole-body dose from the one (1) low dose CT and two (2) ultra-low dose CTs was 9.2 mSv.

tumor deposits = assay: In-human study of ^68Ga-CDI: tumor uptake; format: in vivo
Protocol: Eight serial PET scans were then performed from skull vertex to the proximal femora. The first PET scan commenced immediately following administration of ^68Ga-CDI, with subsequent scans commencing at approximately 7, 17, 29, 47, 64, 120 and 180 minutes after administration (+/−5 minutes). All scans were performed on a Phillips ingenuity TF 128 PET CT scanner (Philips Medical Systems, Cleveland) with acquisition times increasing for each subsequent scan ranging from 30 s/bed (immediately after administration) to 240 s/bed (at 180 minutes after administration) to compensate for excretion and decay. All PET scans were reconstructed using CT attenuation correction with a time of flight, list-mode, blob-based, ordered subsets maximum likelihood expectation maximization algorithm (BLOB-OS-TF) (reconstructed voxel size 4×4×4 mm).
For analysis of uptake and biodistribution in normal tissues and organs, spherical volumes of interest (VOIs) were drawn on the Digital Imaging and Communications in Medicine (DICOM) ^68Ga-CDI-PET emission data on a workstation (IntelliSpace Portal, V5.0.2.60000, Philips Medical System, Best, The Netherlands) by an experienced nuclear medicine physician over clearly tumor-free regions of organs. VOI diameter varied depending on organ size but where possible was at least 10 mm. Spherical VOIs were also drawn over all tumor deposits greater than 10 mm in diameter. These VOIs were replicated across all time points and the mean, maximum and standard deviation of the activity concentration (Bq/mL) of all VOIs at each time point was recorded. Activity concentration was used to calculate the % injected activity (% IA) for organs and tissues based on the masses of source organs for standard phantom male and female models (Stabin & Siegel, Health Phys. 2003; 85:294-310). Mean, maximum and standard deviation of the SUV for each VOI was also a calculated from the activity concentration using the slope intercept stored with the DICOM CDI PET emission data.

[2] = Red Marrow, subjects 1-4 = the 7th table-the 10th table
[3] = Skin, subjects 1-4 = the 7th table-the 10th table
[4] = Small Intestine, subjects 1-4 = the 7th table-the 10th table
[5] = Spleen, subjects 1-4 = the 7th table-the 10th table
[6] = Stomach Wall, subjects 1-4 = the 7th table-the 10th table
[7] = Testes, subject 1 = the 7th table, subject 3 = the 9th table
[8] = Thymus, subjects 1-4 = the 7th table-the 10th table
[9] = Thyroid, subjects 1-4 = the 7th table-the 10th table
[10] = Total Body, subjects 1-4 = the 7th table-the 10th table
[11] = ULI Wall, subjects 1-4 = the 7th table-the 10th table
[12] = Uterus, subjects 1-4 = the 7th table-the 10th table

Q: Which results are given for `O=C(O)CNC(=O)[C@H](CSCC(=O)Nc1ccc([As](O)O)cc1)NC(=O)CC[C@H](NC(=O)CCC1C(=O)[O][68Ga]2[O]C(=O)CN3CCN(CCN1CC3)CC(=O)[O]2)C(=O)O` (stereo partly shown) [^68Ga-NODAGA-GSAO]?
A: EDE Cont. [1, 2]: 1.09E−03 mSv/MBq and 1.30E−03 mSv/MBq and 8.70E−04 mSv/MBq and 1.13E−03 mSv/MBq; Photon dose [1, 2]: 3.70E−03 mSv/MBq and 4.24E−03 mSv/MBq and 2.96E−03 mSv/MBq and 4.13E−03 mSv/MBq; Total dose [1, 2]: 9.08E−03 mSv/MBq and 1.08E−02 mSv/MBq and 7.25E−03 mSv/MBq and 9.38E−03 mSv/MBq; Alpha dose [1, 3]: 0.00E+00 mSv/MBq; ED Cont. [1, 3]: 5.17E−05 mSv/MBq and 7.01E−05 mSv/MBq and 3.66E−05 mSv/MBq and 5.79E−05 mSv/MBq; EDE Cont. [1, 3]: 0.00E+00 mSv/MBq; Photon dose [1, 3]: 2.03E−03 mSv/MBq and 2.32E−03 mSv/MBq and 1.63E−03 mSv/MBq and 2.26E−03 mSv/MBq; Total dose [1, 3]: 5.17E−03 mSv/MBq and 7.01E−03 mSv/MBq and 3.66E−03 mSv/MBq and 5.79E−03 mSv/MBq; Alpha dose [1, 4]: 0.00E+00 mSv/MBq; ED Cont. [1, 4]: 7.19E−05 mSv/MBq and 9.14E−05 mSv/MBq and 6.51E−05 mSv/MBq and 4.60E−05 mSv/MBq; EDE Cont. [1, 4]: 0.00E+00 mSv/MBq; Photon dose [1, 4]: 5.21E−03 mSv/MBq and 5.57E−03 mSv/MBq and 4.29E−03 mSv/MBq and 5.67E−03 mSv/MBq; Total dose [1, 4]: 1.44E−02 mSv/MBq and 1.83E−02 mSv/MBq and 1.30E−02 mSv/MBq and 9.20E−03 mSv/MBq; Alpha dose [1, 5]: 0.00E+00 mSv/MBq; Beta dose [1, 5]: 1.27E−02 mSv/MBq and 1.48E−02 mSv/MBq and 1.09E−02 mSv/MBq and 1.18E−02 mSv/MBq; ED Cont. [1, 5]: 8.65E−05 mSv/MBq and 1.01E−04 mSv/MBq and 7.35E−05 mSv/MBq and 8.27E−05 mSv/MBq; Photon dose [1, 5]: 4.57E−03 mSv/MBq and 5.34E−03 mSv/MBq and 3.83E−03 mSv/MBq and 4.70E−03 mSv/MBq; Total dose [1, 5]: 1.73E−02 mSv/MBq and 2.02E−02 mSv/MBq and 1.47E−02 mSv/MBq and 1.65E−02 mSv/MBq; Alpha dose [1, 6]: 0.00E+00 mSv/MBq; EDE Cont. [1, 6]: 0.00E+00 mSv/MBq; Photon dose [1, 6]: 3.93E−03 mSv/MBq and 4.97E−03 mSv/MBq and 3.12E−03 mSv/MBq and 4.01E−03 mSv/MBq; Alpha dose [1, 7]: 0.00E+00 mSv/MBq; Beta dose [1, 7]: 1.37E−02 mSv/MBq and 1.22E−02 mSv/MBq; ED Cont. [1, 7]: 3.65E−03 mSv/MBq and 3.27E−03 mSv/MBq; EDE Cont. [1, 7]: 4.56E−03 mSv/MBq and 4.09E−03 mSv/MBq; Photon dose [1, 7]: 4.58E−03 mSv/MBq and 4.18E−03 mSv/MBq; Total dose [1, 7]: 1.83E−02 mSv/MBq and 1.64E−02 mSv/MBq; Alpha dose [1, 8]: 0.00E+00 mSv/MBq; ED Cont. [1, 8]: 3.06E−05 mSv/MBq and 4.18E−05 mSv/MBq and 2.16E−05 mSv/MBq and 3.38E−05 mSv/MBq; EDE Cont. [1, 8]: 0.00E+00 mSv/MBq; Photon dose [1, 8]: 2.96E−03 mSv/MBq and 3.66E−03 mSv/MBq and 2.30E−03 mSv/MBq and 3.23E−03 mSv/MBq; Total dose [1, 8]: 6.11E−03 mSv/MBq and 8.36E−03 mSv/MBq and 4.32E−03 mSv/MBq and 6.76E−03 mSv/MBq; Alpha dose [1, 9]: 0.00E+00 mSv/MBq; Beta dose [1, 9]: 1.12E−02 mSv/MBq and 1.19E−02 mSv/MBq and 8.46E−03 mSv/MBq and 1.34E−02 mSv/MBq; ED Cont. [1, 9]: 7.05E−04 mSv/MBq and 7.59E−04 mSv/MBq and 5.42E−04 mSv/MBq and 8.18E−04 mSv/MBq; EDE Cont. [1, 9]: 4.23E−04 mSv/MBq and 4.55E−04 mSv/MBq and 3.25E−04 mSv/MBq and 4.91E−04 mSv/MBq; Photon dose [1, 9]: 2.86E−03 mSv/MBq and 3.24E−03 mSv/MBq and 2.38E−03 mSv/MBq and 3.00E−03 mSv/MBq; Total dose [1, 9]: 1.41E−02 mSv/MBq and 1.52E−02 mSv/MBq and 1.08E−02 mSv/MBq and 1.64E−02 mSv/MBq; Alpha dose [1, 10]: 0.00E+00 mSv/MBq; Beta dose [1, 10]: 6.33E−03 mSv/MBq and 7.76E−03 mSv/MBq and 4.94E−03 mSv/MBq and 6.96E−03 mSv/MBq; ED Cont. [1, 10]: 0.00E+00 mSv/MBq; EDE Cont. [1, 10]: 0.00E+00 mSv/MBq; Photon dose [1, 10]: 3.44E−03 mSv/MBq and 3.84E−03 mSv/MBq and 2.77E−03 mSv/MBq and 3.92E−03 mSv/MBq; Total dose [1, 10]: 9.78E−03 mSv/MBq and 1.16E−02 mSv/MBq and 7.71E−03 mSv/MBq and 1.09E−02 mSv/MBq; Alpha dose [1, 11]: 0.00E+00 mSv/MBq; EDE Cont. [1, 11]: 0.00E+00 mSv/MBq; Photon dose [1, 11]: 5.20E−03 mSv/MBq and 6.02E−03 mSv/MBq and 4.00E−03 mSv/MBq and 5.50E−03 mSv/MBq; Alpha dose ([1]; Urinary Bladder Wall, subjects 1-4 = the 7th table-the 10th table): 0.00E+00 mSv/MBq; Alpha dose [1, 12]: 0.00E+00 mSv/MBq; Photon dose [1, 12]: 1.06E−02 mSv/MBq and 8.98E−03 mSv/MBq and 8.36E−03 mSv/MBq and 1.51E−02 mSv/MBq; estimated effective whole-body dose ([1]; administered activity of 200 MBq): 4.3-6.8 mSv; estimated effective whole-body dose for the protocol ([1]; first in human protocol incl. CTs, subjects 1-4): 13.5-15.9 mSv; effective whole-body dose ([1]; range over subjects 1-4): 2.16×10^−2 to 3.38×10^−2 mSv/MBq; overall estimated radiation dose ([1]; subject 1): 14.5 mSv; overall estimated radiation dose ([1]; subject 2): 13.9 mSv; overall estimated radiation dose ([1]; subject 3): 13.5 mSv; overall estimated radiation dose ([1]; subject 4): 15.9 mSv; Effective Dose ([1]; whole body, subjects 1-4 = the 7th table-the 10th table): 2.63E−02 mSv/MBq and 2.35E−02 mSv/MBq and 2.16E−02 mSv/MBq and 3.38E−02 mSv/MBq; tumor uptake SUVmax (tumor deposits; breast carcinoma): 2.5; tumor uptake SUVmax (tumor deposits; metastatic colorectal carcinoma): 4.4; tumor uptake SUVmax (tumor deposits; metastatic cutaneous squamous cell carcinoma): 6.5; tumor uptake SUVmax (tumor deposits; metastatic ovarian carcinoma): 2.7; tumor uptake SUVmax (tumor deposits; squamous cell carcinoma of the oesophagus): 5.7; tumor retention (tumor deposits; tumor in 4 of the 5 patients): prolonged retention throughout the duration of imaging
